Source: paper PMC9161374 (Science Translational Medicine, 2022)
“And” between values parts separate entries of the source, which are not always exact repeats. Identical values can stand only once. Like-named read-outs stand apart in the source and are kept apart here.

How the values were obtained:
[1] = system: SARS-CoV-2 replicon system (pBAC-SARS-CoV-2-Replicon-Luc); assay: microbe, parasite or virus in culture; format: cell-based; conditions: Severe acute respiratory syndrome coronavirus 2, HEK-293T, 60 h
[2] = system: SARS-CoV-2 (B.1); assay: Anti-SARS-CoV-2 activity in Vero E6 cells (viral yield by qRT-PCR); format: cell-based
[3] = system: SARS-CoV-2 (Beta, B.1.351); assay: microbe, parasite or virus in culture; format: cell-based; conditions: for EC50: read-out: EC50 in Vero E6 cells, SARS-CoV-2 (Beta, B.1.351); for % Inhibition: beta
[4] = system: SARS-CoV-2 (Delta, B.1.617.2); assay: microbe, parasite or virus in culture; format: cell-based; conditions: for % Inhibition: delta
[5] = system: SARS-CoV-2 (B.1) in Huh7 cells; assay: Anti-SARS-CoV-2 activity in Huh7 cells (viral yield by qRT-PCR); format: cell-based; conditions: B.1, MOI 0.05, 48 h
[6] = CCK-8 cell viability assay; format: cell-based, African green monkey; conditions: African green monkey; Vero E6 cells, 48 h, CCK8
In short: (§1)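 Vero E6 cells, 20,000/well, exposed to compound at 0–200 μM (0, 0.01, 0.1, 1, 5, 10, 50, 75, 100, 200 μM) for 48 h; viability read by CCK-8 and expressed as percentage versus drug concentration, mean ± SD.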

[7] = system: Vero E6 cells; assay: CCK-8 cell viability assay; format: cell-based, African green monkey; conditions: individual replicate values, Fig.S4
In short: as §1

[8] = Permeability and efflux ratio in Caco-2 cells; format: in vitro ADME; conditions: human
From the text: ATV019, and ATV020 in Caco-2 cells.
Compound Caco-2 AB/BA (Papp (10-6 cm/s)) a Efflux ratio

[9] = system: SARS-CoV-2 (Omicron, B.1.1.529); conditions: Omicon, Vero E6, replicates
[10] = system: SARS-CoV-2 (Omicron, B.1.1.529); assay: microbe, parasite or virus in culture
[11] = Severe acute respiratory syndrome coronavirus 2, Vero C1008, read-out: EC90 (Confidence 95%)

N#C[C@@]1(c2ccc3c(N)ncnn23)O[C@H](CO)[C@@H](O)[C@H]1O [GS-441524, reference compound]
EC50 ([1]; read-out: EC50 (Confidence 95%), replicon): 955 nM | EC90 ([1]; read-out: EC90 (Confidence 95%), replicon): 3250 nM | % Inhibition ([2]; 2 μM, replicates, sheet Fig.S3): 71.478% | % Inhibition ([2]; 5 μM, replicates, sheet Fig.S3): 85.4877% | % Inhibition ([2]; 10 μM, replicates, sheet Fig.S3): 86.8803% | % Inhibition ([2]; B.1, 1 uM, Vero E6, replicates, 1 µM): 3.349% | % Inhibition ([2]; B.1, 2 uM, Vero E6, replicates, 2 µM): 80.3269% | % Inhibition ([2]; B.1, 5 uM, Vero E6, replicates, 5 µM): 96.5344% | % Inhibition ([2]; B.1, 10 uM, Vero E6, replicates, 10 µM): 98.7837% | % Inhibition ([2]; B.1, 50 uM, Vero E6, replicates, 50 µM): 98.8136% | inhibition at 0.1 µM ([2]; Severe acute respiratory syndrome coronavirus 2, Vero C1008, 0.1 μM, replicates, sheet Fig.S3): 0% | inhibition at 0.5 µM ([2]; Severe acute respiratory syndrome coronavirus 2, Vero C1008, 0.5 μM, replicates, sheet Fig.S3): 0% | inhibition at 1 µM ([2]; Severe acute respiratory syndrome coronavirus 2, Vero C1008, 1 μM, replicates, sheet Fig.S3): 0% | inhibition at 2 µM ([2]; Severe acute respiratory syndrome coronavirus 2, Vero C1008, 2 μM, replicates, sheet Fig.S3): 72.7% | inhibition at 5 µM ([2]; Severe acute respiratory syndrome coronavirus 2, Vero C1008, 5 μM, replicates, sheet Fig.S3): 85.9% | inhibition at 10 µM ([2]; Severe acute respiratory syndrome coronavirus 2, Vero C1008, 10 μM, replicates, sheet Fig.S3): 90.7% | inhibition at 0.01 µM ([2]; Severe acute respiratory syndrome coronavirus 2, Vero C1008, B.1, 0.01 uM, Vero E6, replicates): 0% | inhibition at 0.1 µM ([2]; Severe acute respiratory syndrome coronavirus 2, Vero C1008, B.1, 0.1 uM, Vero E6, replicates): 0% | inhibition at 0.25 µM ([2]; Severe acute respiratory syndrome coronavirus 2, Vero C1008, B.1, 0.25 uM, Vero E6, replicates): 0% | inhibition at 0.5 µM ([2]; Severe acute respiratory syndrome coronavirus 2, Vero C1008, B.1, 0.5 uM, Vero E6, replicates): 0% | inhibition at 2 µM ([2]; Severe acute respiratory syndrome coronavirus 2, Vero C1008, B.1, 2 uM, Vero E6, replicates): 72.6% | inhibition at 5 µM ([2]; Severe acute respiratory syndrome coronavirus 2, Vero C1008, B.1, 5 uM, Vero E6, replicates): 95.7% | inhibition at 10 µM ([2]; Severe acute respiratory syndrome coronavirus 2, Vero C1008, B.1, 10 uM, Vero E6, replicates): 98.5% | inhibition at 50 µM ([2]; Severe acute respiratory syndrome coronavirus 2, Vero C1008, B.1, 50 uM, Vero E6, replicates): 98.7% | EC90 [2, 11]: 2390 nM | EC50 ([2]; Severe acute respiratory syndrome coronavirus 2, Vero C1008, MOI 0.05, 48 h): 1710 nM | EC50 ([3]; Severe acute respiratory syndrome coronavirus 2, Vero C1008, 48 h): 1340 nM | inhibition at 0.01 µM ([3]; Severe acute respiratory syndrome coronavirus 2, Vero C1008, beta, 0.01 uM, Vero E6, replicates): 0% | inhibition at 0.1 µM ([3]; Severe acute respiratory syndrome coronavirus 2, Vero C1008, beta, 0.1 uM, Vero E6, replicates): 0% | inhibition at 0.25 µM ([3]; Severe acute respiratory syndrome coronavirus 2, Vero C1008, beta, 0.25 uM, Vero E6, replicates): 0% | inhibition at 0.5 µM ([3]; Severe acute respiratory syndrome coronavirus 2, Vero C1008, beta, 0.5 uM, Vero E6, replicates): 0% | inhibition at 1 µM ([3]; Severe acute respiratory syndrome coronavirus 2, Vero C1008, beta, 1 uM, Vero E6, replicates): 21.8% | inhibition at 2 µM ([3]; Severe acute respiratory syndrome coronavirus 2, Vero C1008, beta, 2 uM, Vero E6, replicates): 85.3% | inhibition at 5 µM ([3]; Severe acute respiratory syndrome coronavirus 2, Vero C1008, beta, 5 uM, Vero E6, replicates): 99.5% | inhibition at 10 µM ([3]; Severe acute respiratory syndrome coronavirus 2, Vero C1008, beta, 10 uM, Vero E6, replicates): 99.9% | inhibition at 50 µM ([3]; Severe acute respiratory syndrome coronavirus 2, Vero C1008, beta, 50 uM, Vero E6, replicates): 99.9% | EC90 ([3]; Severe acute respiratory syndrome coronavirus 2, Vero C1008, read-out: EC90 (Confidence 95%), Vero-E6, Beta B.1.351): 2320 nM | % Inhibition ([3]; 1 uM, Vero E6, replicates): 23.8494% | % Inhibition ([3]; 2 uM, Vero E6, replicates): 80.342% | % Inhibition ([3]; 5 uM, Vero E6, replicates): 99.4744% | % Inhibition ([3]; 10 uM, Vero E6, replicates): 99.9464% | % Inhibition ([3]; 50 uM, Vero E6, replicates): 99.9252% | EC50 [3]: 1350 nM | EC50 ([4]; Severe acute respiratory syndrome coronavirus 2, Vero C1008, 48 h, read-out: EC50 in Vero E6 cells, SARS-CoV-2 (Delta, B.1.617.2)): 957 nM | inhibition at 0.01 µM ([4]; Severe acute respiratory syndrome coronavirus 2, Vero C1008, delta, 0.01 uM, Vero E6, replicates): 0% | inhibition at 0.1 µM ([4]; Severe acute respiratory syndrome coronavirus 2, Vero C1008, delta, 0.1 uM, Vero E6, replicates): 0% | inhibition at 0.25 µM ([4]; Severe acute respiratory syndrome coronavirus 2, Vero C1008, delta, 0.25 uM, Vero E6, replicates): 0% | inhibition at 0.5 µM ([4]; Severe acute respiratory syndrome coronavirus 2, Vero C1008, delta, 0.5 uM, Vero E6, replicates): 0% | inhibition at 2 µM ([4]; Severe acute respiratory syndrome coronavirus 2, Vero C1008, delta, 2 uM, Vero E6, replicates): 94.9% | inhibition at 5 µM ([4]; Severe acute respiratory syndrome coronavirus 2, Vero C1008, delta, 5 uM, Vero E6, replicates): 97% | inhibition at 10 µM ([4]; Severe acute respiratory syndrome coronavirus 2, Vero C1008, delta, 10 uM, Vero E6, replicates): 98.7% | inhibition at 50 µM ([4]; Severe acute respiratory syndrome coronavirus 2, Vero C1008, delta, 50 uM, Vero E6, replicates): 99.8% | EC90 ([4]; Severe acute respiratory syndrome coronavirus 2, Vero C1008, read-out: EC90 (Confidence 95%), Vero-E6, Delta B.1.617.2): 1360 nM | % Inhibition ([4]; 1 uM, Vero E6, replicates): 66.6762% and 46.4634% | % Inhibition ([4]; 2 uM, Vero E6, replicates): 93.4361% | % Inhibition ([4]; 5 uM, Vero E6, replicates): 94.7905% | % Inhibition ([4]; 10 uM, Vero E6, replicates): 95.0345% | % Inhibition ([4]; 50 uM, Vero E6, replicates): 98.9856% | EC50 ([5]; Severe acute respiratory syndrome coronavirus 2, Huh-7, read-out: EC50 (Confidence 95%) in Huh7 cells): 1760 nM | EC90 ([5]; Severe acute respiratory syndrome coronavirus 2, Huh-7, read-out: EC90 (Confidence 95%) in Huh7 cells): 2080 nM | CC50 at 48 h [6]: > 50000 nM | cell viability (% of control) ([7]; 0.1 μM compound, 0.1 µM): 105.342 % of control | cell viability (% of control) ([7]; 1 μM compound, 1 µM): 107.061 % of control and 113.737 % of control | cell viability (% of control) ([7]; 2 μM compound, 2 µM): 117.342 % of control and 112.354 % of control and 107.242 % of control | cell viability (% of control) ([7]; 5 μM compound, 5 µM): 121.028 % of control and 116.731 % of control | cell viability (% of control) ([7]; 10 μM compound, 10 µM): 98.5418 % of control and 94.9348 % of control and 94.7813 % of control | cell viability (% of control) ([7]; 20 μM compound, 20 µM): 98.3543 % of control and 95.3243 % of control and 95.3532 % of control | cell viability (% of control) ([7]; 50 μM compound, 50 µM): 93.3231 % of control and 94.7045 % of control and 94.3208 % of control | Papp A→B ([8]; AB): 1.22 ×10⁻⁶ cm/s | Papp B→A ([8]; BA): 1.2 ×10⁻⁶ cm/s | % Inhibition ([9]; 0.208 uM): 55.9865% and 27.3736% and 80.8013% | % Inhibition ([9]; 0.625 uM): 98.5871% and 97.6862% | % Inhibition ([9]; 2.5 uM): 99.9728% and 99.9712% | % Inhibition ([9]; 5 uM): 99.9879% and 99.9871% | % Inhibition ([9]; 10 uM): 99.9637% and 99.9769% | EC50 ([10]; Severe acute respiratory syndrome coronavirus 2, Vero C1008, 48 h, read-out: EC50 in Vero E6 cells, SARS-CoV-2 (Omicron, B.1.1.529)): 190 nM | inhibition at 0.069 µM ([10]; Severe acute respiratory syndrome coronavirus 2, Vero C1008, Omicon, 0.069 uM, Vero E6, replicates): 0% | inhibition at 0.625 µM ([10]; Severe acute respiratory syndrome coronavirus 2, Vero C1008, Omicon, 0.625 uM, Vero E6, replicates): 96.5% | inhibition at 2.5 µM ([10]; Severe acute respiratory syndrome coronavirus 2, Vero C1008, Omicon, 2.5 uM, Vero E6, replicates): 100% | inhibition at 5 µM ([10]; Severe acute respiratory syndrome coronavirus 2, Vero C1008, Omicon, 5 uM, Vero E6, replicates): 100% | inhibition at 10 µM ([10]; Severe acute respiratory syndrome coronavirus 2, Vero C1008, Omicon, 10 uM, Vero E6, replicates): 100% | EC90 [10, 11]: 363 nM
